The results in this text go back to patent US20250270256A1, “NOVEL ANTIMICROBIAL PEPTIDE WITH EXCELLENT MICROBIAL CYTOPLASM ELUTION EFFECT” (CELLICON LAB INC., priority 2021, published 2025).

For data set [1], the system named is Escherichia coli. The class given is cell-based. The note with it: for antimicrobial activity against Escherichia coli (in words): comparison between peptides, FIGS. 1A-4A. The protocol:
Specifically, in order to evaluate the antimicrobial activity, the antimicrobial activity against Escherichia coli was measured, and Escherichia coli was treated with antimicrobial peptides, and cell viability was measured and compared.
In order to test the antimicrobial efficacy of antimicrobial peptides, Escherichia coli was cultured in LB medium for about 8 hours, and then the cultured bacteria were dispensed into a 96-well plate. Antimicrobial peptide samples at various concentrations were added into the respective wells, and incubation was performed at 37° C. for 24 hours.
In order to evaluate the antimicrobial activity against Escherichia coli, MIC (minimum inhibitory concentration) and IC50 were additionally measured in addition to the experiments conducted in Examples 1-1 and 1-2.
Specifically, an antimicrobial efficacy experiment was used as the experimental method, and the MIC and IC50 values for the experimental results were calculated by evaluating the minimum inhibitory concentration and the 50% inhibitory concentration with the absorbance and OD value, respectively.

The subject of data set [2] is Candida albicans. The data set is classed as cell-based. The protocol: (§1) In order to evaluate whether the antimicrobial peptides of the present disclosure have antimicrobial activity against bacteria other than Escherichia coli, antimicrobial effects against Escherichia coli, Staphylococcus aureus, Pseudomonas aeruginosa, and Candida albicans, which were strains announced by the Ministry of Food and Drug Safety, were examined.
(§2) Specifically, Escherichia coli, Staphylococcus aureus, and Pseudomonas aeruginosa were cultured using LB medium, and Candida albicans was cultured using YM medium, and then the cultured bacteria were dispensed into a 96-well plate. Antimicrobial peptide samples at various concentrations were added into the respective wells, and incubation was performed at 37° C. for 24 hours.

In data set [3] the test system is Escherichia coli. The data set is classed as cell-based. The protocol: as §1, §2
Data set [4] concerns Pseudomonas aeruginosa. The class given is cell-based. The protocol: as §1, §2
In data set [5] the test system is Staphylococcus aureus. The data set is classed as cell-based. Here is the method: as §1, §2
Data set [6] concerns Human keratinocytes (HaCaT). The note with it: 24 hours, comparison between peptides, FIGS. 1B-4B.
Method: Therefore, cytotoxicity to human keratinocytes was also evaluated by treating human keratinocytes with antimicrobial peptides and measuring cell viability.
Human keratinocytes (HaCaT) were purchased from ATCC (American Type Culture Collection, USA) and cultured in Dulbecco's modified Eagle's medium (DMEM, Gibco, USA) containing 10% fetal bovine serum (FBS, Gibco, USA) and 1% antibiotic-antimycotic (Gibco, USA) at 37° C. in a 5% CO2 incubator.
MTT assay was performed to determine the viability of HaCaT cells against antimicrobial peptides. HaCaT cells were cultured in a 96-well plate at 2×10^5 cells/mL for 24 hours, then treated with samples at various concentrations, and cultured again for 24 hours. The culture medium was removed, and the cells were treated with MTT solution (0.5 mg/mL in PBS). After 4 hours, the MTT solution was removed, DMSO was added to each well, and formazan was dissolved at 37° C. for 30 minutes. Absorbance was measured at 570 nm using a microplate reader (Molecular Devices Spectra MAX, Sunnyvale, CA, USA).
In data set [7] the test system is Escherichia coli. The data set can be described thus: Disk diffusion test (Kirby-Bauer): Escherichia coli. The data set is classed as cell-based. To be noted: 10 μL sample, 37° C. for 16 hours. The protocol:
(§3) In order to perform a disk diffusion test for the four kinds of bacteria, the following experiment was conducted.
(§4) After Escherichia coli, Staphylococcus aureus, Pseudomonas aeruginosa, and Candida albicans were cultured in the respective media, a certain amount of the cultured bacteria was spread on unhardened solid media, and then the media were hardened. On the surface of the hardened solid medium, 10 μL of antimicrobial peptide sample was placed, a dry 3M paper disk was put thereon, then incubation was performed at 37° C. for 16 hours, and the size of the zone of inhibition was observed.
In general terms: Agar diffusion results depend on both activity and mobility in agar.

The test system of data set [8] is Staphylococcus aureus. As to the kind of experiment: Disk diffusion test (Kirby-Bauer): Staphylococcus aureus. The class given is cell-based. The note with it: 10 μL sample, 37° C. for 16 hours. Here is the method:
as §3, §4

Data set [9] deals with Pseudomonas aeruginosa. The data set can be described thus: Disk diffusion test (Kirby-Bauer): Pseudomonas aeruginosa. The data set is classed as cell-based. To be noted: 10 μL sample, 37° C. for 16 hours. The protocol: as §3, §4
Data set [10] relates to Candida albicans. As to the kind of experiment: Disk diffusion test (Kirby-Bauer): Candida albicans. The data set is classed as cell-based. The note with it: 10 μL sample, 37° C. for 16 hours. Here is the method: as §3, §4
The test system of data set [11] is Escherichia coli. The data set can be described thus: SEM analysis of Escherichia coli treated with peptide. The data set is classed as cell-based. To be noted: Escherichia coli treated for 30 minutes. Here is the method: In order to closely examine the effect of the antimicrobial peptide of the present disclosure on microorganisms, Escherichia coli was treated with the peptide of SEQ ID NO: 6 for 30 minutes, and then the antimicrobial effect was analyzed using a scanning electron microscope (SEM).
Specifically, for SEM analysis, Escherichia coli was cultured using LB medium, then a certain amount of cultured Escherichia coli was taken and treated with the peptide of SEQ ID NO: 6 for 30 minutes, washed with PBS 2 times, and then fixed with a primary fixative of 2% paraformaldehyde in PBS for 2 hours. After fixation, washing with PBS was performed 2 times, dehydration with 30%, 50%, 70%, 80%, 95%, and 100% ethanol was performed for 10 minutes in each step (the last treatment with 100% ethanol was repeated 3 times), and the pellets were lyophilized. After platinum coating using a coater, analysis by SEM was conducted.

Setting [12] is: Candida albicans, YM medium, 24 hours at 37° C., read-out: IC50.
[13] abbreviates: Escherichia coli, LB medium, 24 hours at 37° C., read-out: IC50.
Where [14] appears, read: Pseudomonas aeruginosa, LB medium, 24 hours at 37° C., read-out: IC50.
Setting [15] is: Staphylococcus aureus, LB medium, 24 hours at 37° C., read-out: IC50.
The mark [16] stands for this setting: Escherichia coli, 24 hours at 37° C., absorbance 600 nm.
Setting [17] is: Escherichia coli, 24 hours at 37° C., absorbance 600 nm, read-out: IC50.

Entries after “also recorded” stand apart in the source; their conditions may differ. Like-named read-outs stand apart in the source and are kept apart here. Where no end group is shown, it is not given here.

Usually IC50 stands for the point on the concentration scale where inhibition reaches its midpoint. For `CC[C@H](C)[C@H](NC(=O)[C@H](CCCCN)NC(=O)[C@H](CCCCN)NC(=O)[C@H](Cc1ccccc1)NC(=O)[C@H](CC(C)C)NC(=O)[C@H](CCCCN)NC(=O)[C@@H](N)CCCCN)C(=O)N[C@@H](CC(C)C)C(=O)N[C@@H](CCCCN)C(=O)N[C@@H](Cc1ccc(O)cc1)C(=O)N[C@@H](CC(C)C)C(=O)N[C@@H](CCCCN)C(=O)O` [SEQ ID NO: 1, H2N-[Lys-Lys-Leu-Phe-Lys-Lys-Ile-Leu-Lys-Tyr-Leu-Lys]-CO2H], the “antimicrobial activity against Escherichia coli (in words)” value (from here on “antimicrobial activity”) in data set [1] is reported as “remarkably increased compared to that of the known peptide”. Moreover, the IC50 in [2] (setting [12]) came to 19 µM; in [3] (setting [13]) it was 21 µM; in [4] (setting [14]), 12 µM; in data set [5] (setting [15]), 22 µM. For the same molecule, the “toxicity level to human keratinocytes (in words)” value in [6] is “maintained at a similar level to that of the known peptide”.
For orientation: MIC means the lowest concentration found to suppress growth. As for “H-KRLFKRILRYLK-OH [SEQ ID NO: 7, H2N-[Lys-Arg-Leu-Phe-Lys-Arg-Ile-Leu-Arg-Tyr-Leu-Lys]-CO2H]”, the IC50 came out at 11 µM in data set [1] (24 h); 10 µM in data set [2] (24 h); 11 µM in data set [3] (24 h); 8 µM in [4] (24 h); 13 µM in data set [5] (24 h). Moreover, in [1] (24 h), the minimal inhibitory concentration (MIC) was 62.5 µM.
With “KRLFRKILKYLR [SEQ ID NO: 6, H2N-[Lys-Arg-Leu-Phe-Arg-Lys-Ile-Leu-Lys-Tyr-Leu-Arg]-CO2H]”, in [1] (setting [16]), the MIC turned out to be 31.25 µM. Moreover, the half-inhibitory concentration (IC50) in [1] (setting [17]) was determined as 9 µM; in data set [2] (setting [12]), 6 µM; in data set [3] (setting [13]), 9 µM; in data set [4] (setting [14]), 4 µM; in [5] (setting [15]), 10 µM. In [1], the “antimicrobial activity” value was “most remarkably excellent”. Besides, the zone of inhibition result in data set [7], in data set [8], in data set [9] and in [10] was “transparent zones of inhibition with clear borders” throughout. Moreover, the “effect on cell membrane observed by SEM” value in data set [11] is “entire cell membrane of Escherichia coli is destroyed to form large pores and elution of cell contents of the bacteria is observed”.
Molecule “RKLFKRILRYLK [SEQ ID NO: 5, H2N-[Arg-Lys-Leu-Phe-Lys-Arg-Ile-Leu-Arg-Tyr-Leu-Lys]-CO2H]” showed a minimal inhibitory concentration (MIC) in [1] (setting [16]) of 62.5 µM. Moreover, the IC50 in data set [1] (setting [17]) came to 12 µM; in data set [2] (setting [12]) it was 11 µM; in [3] (setting [13]), 12 µM; in data set [4] (setting [14]), 9 µM; in data set [5] (setting [15]), 15 µM.
For the molecule “RKLFRKILKYLR [SEQ ID NO: 8, H2N-[Arg-Lys-Leu-Phe-Arg-Lys-Ile-Leu-Lys-Tyr-Leu-Arg]-CO2H]”, in data set [1] (setting [16]), the minimum inhibitory concentration (MIC) is 31.25 µM. The half-inhibitory concentration (IC50) in data set [1] (setting [17]) was 10 µM; in data set [2] (setting [12]), 8 µM; in [3] (setting [13]) it was 10 µM; in data set [4] (setting [14]), 5 µM; in [5] (setting [15]), 10 µM. Besides, the “antimicrobial activity” value in data set [1] is given as “most remarkably excellent”.
Turning to “RRLFRRILRYLR [SEQ ID NO: 2, H2N-[Arg-Arg-Leu-Phe-Arg-Arg-Ile-Leu-Arg-Tyr-Leu-Arg]-CO2H]”, the minimal inhibitory concentration (MIC) in data set [1] (setting [16]) amounted to 62.5 µM. In addition, the IC50 is 14 µM in [1] (setting [17]); 13 µM in [2] (setting [12]); 14 µM in data set [3] (setting [13]); 10 µM in data set [4] (setting [14]); 17 µM in data set [5] (setting [15]). Moreover, the “antimicrobial activity” value in [1] was “remarkably increased compared to that of the peptide of SEQ ID NO: 1; also recorded: remarkably excellent compared to that of the peptides of SEQ ID NO: 3 and SEQ ID NO: 4”. Further, the “toxicity level to human keratinocytes (in words)” value in data set [6] is “maintained at a level similar to that of SEQ. ID NO: 1 peptide; also recorded: greatly decreased compared to that of the peptides of SEQ ID NO: 3 and SEQ ID NO: 4”.
